Measured values as given in ChEMBL document CHEMBL1154920, “Rare casbane diterpenoids from the Hainan soft coral Sinularia depressa” (J Nat Prod, 2010).

Experiments:
Staphylococcus aureus = experiment: Antibacterial activity against Staphylococcus aureus by broth macrodilution method; format: functional, organism-based
Escherichia coli = experiment: Antibacterial activity against Escherichia coli by broth macrodilution method; format: functional, organism-based
SW1990 = experiment: Cytotoxicity against human SW1990 cells after 72 hrs by MTT assay; format: functional, cell-based; settings: SW1990, 72 h
HepG2 = experiment: Cytotoxicity against human HepG2 cells after 72 hrs by MTT assay; format: functional, cell-based; settings: HepG2, 72 h

## C/C1=C\[C@@H](O)C/C(C)=C/CC(=O)/C(C)=C/[C@@H]2[C@H](CC1)C2(C)C
Staphylococcus aureus
  IC50: 17 µM
Escherichia coli
  IC50: 17 µM
SW1990
  IC50: 37 µM
HepG2
  IC50: 61 µM
